Test results as given in patent publication US11344548B2, “Analogs of 3,5-dihydroxypentanoate for bone formation” (KAOHSIUNG MEDICAL UNIVERSITY, priority 2015, dated 2022).
Where two headings read alike, the source gives them in different places.

Legend:
zebrafish [1] = test: Bone-targeting of test compounds in zebrafish; assay type: in vivo; conditions: living zebrafish, 3.2 μM, fluorescence microscope, FIG. 9(a), 9(b)
Procedure: Calcein, which is a known staining dye for the mineral in animals, was used as a positive control group.
The AB strain of wild-type zebrafish was used for this study. Embryos were collected after natural spawning, staged according to standard criteria, and raised synchronously at 28.5° C. in Hank's buffer (13.7 mM NaCl, 540 M KCl, 25 μM Na2HPO4, 44 μM KH2PO4, 300 μM CaCl2, 100 μM MgSO4, 420 μM NaHCO3, pH 7.4). Zebrafish larvae at 2 dpf were exposed to test compounds (3.2 μM) for 3 days in a 24-well plate. At 7 dpf, the fish were anesthetized using tricaine-methanesulfonate (MS 222) and mounted on depression glass slides with methyl-cellulose (3%), and the images of the zebrafish were acquired using a Leica DM-6000 CS fluorescence microscope (Leica Instruments Inc., Wetzlar, Germany). All of the images were acquired using a SPOT Xplorer Digital camera (Diagnostic Instruments, Inc., Sterling Heights, Mich., USA). Each image was taken at 60-sec.

HMG-CoA reductase = biological target: T1, HMG-CoA reductase (Homo sapiens, UniProt P04035); test: HMG-CoA reductase inhibition; assay type: biochemical; conditions: for effective inhibitory concentration compared with simvastatin: HMG-CoA reductase; for IC50: HMG-CoA reductase 17.4 nM final, absorbance 340 nm
T1 sequence (P04035 426-888 limits assumed): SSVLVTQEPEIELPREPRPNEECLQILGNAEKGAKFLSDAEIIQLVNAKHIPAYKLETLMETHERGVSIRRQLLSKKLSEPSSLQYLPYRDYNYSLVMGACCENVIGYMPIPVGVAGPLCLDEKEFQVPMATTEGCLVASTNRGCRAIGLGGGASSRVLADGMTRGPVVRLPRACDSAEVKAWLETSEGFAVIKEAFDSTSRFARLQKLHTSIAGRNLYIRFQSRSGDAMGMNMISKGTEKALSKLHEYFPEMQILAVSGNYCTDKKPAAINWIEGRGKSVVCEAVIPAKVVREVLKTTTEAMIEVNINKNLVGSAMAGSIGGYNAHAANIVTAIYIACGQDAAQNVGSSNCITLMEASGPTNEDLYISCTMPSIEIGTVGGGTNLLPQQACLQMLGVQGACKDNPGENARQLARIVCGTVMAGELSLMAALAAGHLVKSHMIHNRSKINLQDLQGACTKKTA
Procedure: HMG-CoA Reductase Inhibition
A 0.1 M phosphate buffer containing 100 μM […], 330 μM NADPH, 2% DMSO and 1 mg/mL BSA was firstly prepared. Compounds 1 and 4˜11 were added dissolved in phosphate buffer at various concentrations, then added HMG-CoA reductase (the final concentration is 17.4 nM) and mixed for 5 minutes. The absorbance of the solution was measured at 340 nm. The IC50 values were analyzed via nonlinear least-squares using Sigma 10 to determine the HMG-CoA reductase inhibition of compounds.

[2] = Combination with HAP monitored by fluorescent microscope; assay type: physicochemical; conditions: FIG. 6
Excerpt: If compound 1-F is combined with HAP, it can be monitored using a fluorescent microscope.

[3] = system: human adipose stem cells (hADSC); test: Cytotoxicity MTS assay on human adipose stem cells
Procedure: Statins are known agents that induced stem cells to be osteogenesis.
In a 96-well plate, human adipose stem cells (hADSC) were cultured to an initial culture density of 6×10^3 cells per well in K medium (Keratinocyte-SFM, GIBCO-Invitrogen Corporation). […] The MTS agent was added to the culture medium for 3 hours, then the medium was removed and the cells were washed with PBS (phosphate buffered saline), and 100 μL of DMSO (dimethyl sulfoxide) was added to the wells to promote the dissolution of formazan. The DMSO solution containing formazan was measured using UV spectrophotometer at 490 nm wavelength, and the survival of cells was judged by the value of absorbance.

D1 cells [4] = test: Induction of mineralization (Alizarin Red S), FIG. 7; assay type: cell-based, rat
Procedure: Following the tests above, the ability of inducing mineralization of the compounds to D1 cells was tested.
(§1) The D1 cells, purchased from American Type Culture Collection, were plated in 48-well plates at a density of 3×10^4 cells/well. Once confluence was obtained, the cells were cultured in bone medium (BM, prepared with DMEM, 10% FBS, 100 U/mL penicillin, 100 μg/mL streptomycin, […] ascorbic acid, 1% NEAA, 1.5 g sodium bicarbonate) in the presence of compound 1. After 3 days, BM was replaced with an osteogenesis induction medium (OIM prepared with BM, 10^−2 M β-glycerophosphate and 10^−7 M dexamethasone). […] The medium was changed every 2 days. For the quantitative value of mineralization, the cells were washed with PBS triplex and fixed with 10% formalin for 30 minutes at room temperature. Thereafter, the cells were washed with deionized water triplex, and then stained with Alizarin Red S solution ([…], 80 mM, pH 4) for 10 minutes at room temperature. The cells were washed with deionized water triplex and dried overnight at room temperature. The Alizarin Red S was released from the cell matrix by being mixed with 10% acetic acid(aq) for 30 minutes. The concentration of Alizarin Red S was determined by measuring the absorbance at 415 nm.

zebrafish [5] = test: Bone formation induced by test compounds in zebrafish (calcein staining); assay type: in vivo; conditions: zebrafish larvae, 0.32 μM, calcein stain, FIG. 9(c)
Procedure: The non-oligopeptide derivative 7 which had the most outstanding overall performance was selected from the above experiments. In the study for increasing the bone mass of zebrafish, when 0.1 or 1 μM of compound 7 were treated, both can promote bone formation in the zebrafish, and the increase range was between 30% and 50% compared with the non-administration group.
Zebrafish larvae at 2 dpf were treated with test compounds (0.32 μM) for 6 days in a 24-well plate. At 7 dpf, the fish were transferred to 6-cm dishes (8 fish/dish) for bone staining using calcein solution. The calcein solution was prepared at 0.2% by dissolving 2 g of calcein powder (Sigma Chemical, St. Louis, Mo.) in 1 liter of deionized water. The immersion time was 10 minutes at 7 dpf. After the immersion, the embryos were rinsed a number of times in fresh water, and then allowed to stand for 10 mins to allow the excess stain diffusion from the larvae tissue. The embryos were then euthanized in tricaine-methanesulfonate (MS 222) and mounted on depression glass slides with methyl-cellulose (3%). […] Each image was taken at 200 mini-seconds, then the fluorescence of the calcein stain images was calculated using NIH Image J (NIH open software with Macbiophotonics plugins). […]

D1 cells [6] = test: Cytotoxicity MTT assay on D1 cells; assay type: cell-based, rat; conditions: for IC50: Rattus norvegicus, 72 h, MTT, 3 days
Procedure: D1 cell is more sensitive than hADSC cell by drug treatment.
The cytotoxicity of compounds 4˜11 was analyzed using MTT assay. D1 cells were cultured to an initial culture density of 5×10^3 cells per well in a bone medium. The bone medium was a DMEM medium containing 10% Fetal bovine serum (FBS), 100 U/mL penicillin, 100 μg/mL streptomycin, […] ascorbic acid, 1% non-essential amino acids (NEAA) and 1.5 g sodium bicarbonate. After the cells were seeded, the bone medium with compounds 4˜11 respectively was set as the experimental group, the bone medium without compound was set as the blank test group, and all were cultured at 37° C. for 3 days. The MTT agent was added to the culture medium for 3 hours, then the medium was removed and the cells were washed with PBS, and 100 μL of DMSO was added to the wells to promote the dissolution of formazan. The DMSO solution containing formazan was measured using UV spectrophotometer at 595 nm wavelength, and the survival of cells was judged by the value of absorbance.

D1 cells [7] = assay type: cell-based
Procedure: as §1
The abilities of compounds 4˜11 to induce cell mineralization were evaluated followed the same method above, only remove dexamethasone from the recipe of osteogenesis induction medium.

Solubility comparison = assay type: physicochemical; conditions: compared with simvastatin
zebrafish [8] = conditions: reported by Fleming; cited from earlier work

Q: With `O=C(O)CN(CC(=O)O)Cc1cc2c(cc1O)Oc1cc(O)c(CN(CC(=O)O)CC(=O)O)cc1C21OC(=O)c2ccccc21` [Calcein, reference compound] as the compound, how does the “bone-targeting (fluorescence on the bones)” value (zebrafish [1]) read?
A: The value was “fluorescent staining on the bone can be observed”.

Q: For `CCC(C)(C)C(=O)O[C@H]1C[C@@H](C)C=C2C=C[C@H](C)[C@H](CC[C@@H](O)C[C@@H](O)CC(=O)N[C@@H](CCCCNC(=O)[C@H](CC(=O)O)NC(=O)[C@H](CC(=O)O)NC(=O)[C@H](CC(=O)O)NC(=O)[C@H](CC(=O)O)NC(=O)[C@H](CC(=O)O)NC(=O)[C@H](CC(=O)O)NC(=O)[C@H](CCCCNC(=S)Nc3ccc4c(c3)C(=O)OC43c4ccc(O)cc4Oc4cc(O)ccc43)NC(=O)OCCOCCOCCOCCOCCOCCOCCOCCOCCOCCOCCOC)C(=O)NCC(=O)O)[C@H]21` [Compound 1-F], which “effective inhibitory concentration compared with simvastatin” value (HMG-CoA reductase) is on record?
A: The value was 500 fold.

Q: And the “combination with HAP” value [2]?
A: Its value is “combines on the surface of HAP”.

Q: And the “IC50 compared with simvastatin” value ([3]; cytotoxicity, hADSC)?
A: Its value is 300 fold.

Q: What about the induction of mineralization (D1 cells [4]; 15 μM) of the same compound?
A: Its induction of mineralization is “can induce mineralization of D1 cells”.

Q: What about the induction of mineralization (D1 cells [4]; over 20 μM) of the same compound?
A: The induction of mineralization was “can induce mineralization of D1 cells”.

Q: And the “bone-targeting (fluorescence on the bones)” value (zebrafish [1])?
A: Its value is “targets the bones successfully”.

Q: What about the “promotion of bone formation compared with the non-administration group (control)” value (zebrafish [5]) of the same compound?
A: The value was “up to 50%”.

Q: For `CCC(C)(C)C(=O)O[C@H]1C[C@@H](C)C=C2C=C[C@H](C)[C@H](CC[C@@H](O)C[C@@H](O)CC(=O)O)[C@H]21` [Compound 4, simvastatin acid, reference compound], which IC50 (HMG-CoA reductase) is on record?
A: The IC50 was 0.263 ± 0.0834 µM.

Q: What about the IC50 (D1 cells [6]) of the same compound?
A: The IC50 was 29.4 ± 1.02 µM.

Q: And the “induction of cell mineralization” value (D1 cells [7]; 4 μM, FIG. 8(c))?
A: Its value is “can only induce mineralization effectively under a concentration of 4 μM”.

Q: With `CCC(C)(C)C(=O)O[C@H]1C[C@@H](C)C=C2C=C[C@H](C)[C@H](CC[C@@H](O)C[C@@H](O)CC(=O)NCCO)[C@H]21` [Compound 5] as the compound, how does the IC50 (HMG-CoA reductase) read?
A: Its IC50 is 1.02 ± 0.0509 µM.

Q: And the IC50 (D1 cells [6])?
A: The IC50 was 117 ± 8.07 µM.

Q: And the “induction of cell mineralization” value (D1 cells [7]; 1 μM, Day 9, FIG. 8(a))?
A: The value was “clearly induced cell mineralization”.

Q: What about the “induction of cell mineralization” value (D1 cells [7]; 1 μM, Day 11, FIG. 8(b)) of the same compound?
A: The value was “excellent ability to induce cell mineralization”.

Q: Which IC50 (HMG-CoA reductase) does the source give for `CCC(C)(C)C(=O)O[C@H]1C[C@@H](C)C=C2C=C[C@H](C)[C@H](CC[C@@H](O)C[C@@H](O)CC(=O)NCCCO)[C@H]21` [Compound 6] here?
A: Its IC50 is 1.13 ± 0.0895 µM.

Q: What about the IC50 (D1 cells [6]) of the same compound?
A: The IC50 was 161 ± 3.76 µM.

Q: And the “induction of cell mineralization” value (D1 cells [7]; 1 μM, Day 11, FIG. 8(b))?
A: Its value is “excellent ability to induce cell mineralization”.

Q: Which IC50 (HMG-CoA reductase) does the source give for `CCC(C)(C)C(=O)O[C@H]1C[C@@H](C)C=C2C=C[C@H](C)[C@H](CC[C@@H](O)C[C@@H](O)CC(=O)NCCOCCO)[C@H]21` [Compound 7] here?
A: The IC50 was 0.171 ± 0.0092 µM.

Q: What about the “IC50 compared with simvastatin” value (D1 cells [6]) of the same compound?
A: Its value is 83 fold.

Q: And the IC50 (D1 cells [6])?
A: The IC50 was 269.1 ± 1.04 µM.

Q: And the “induction of cell mineralization” value (D1 cells [7]; 1 μM, Day 9, FIG. 8(a))?
A: The value was “clearly induced cell mineralization”.

Q: And the “induction of cell mineralization” value (D1 cells [7]; 1 μM, Day 11, FIG. 8(b))?
A: Its value is “excellent ability to induce cell mineralization”.

Q: What about the “induction of cell mineralization” value (D1 cells [7]; 4 μM, FIG. 8(c)) of the same compound?
A: Its value is “obvious ability to induce cell mineralization”.

Q: What about the solubility (Solubility comparison) of the same compound?
A: Its solubility is “higher than simvastatin”.

Q: For `CCC(C)(C)C(=O)O[C@H]1C[C@@H](C)C=C2C=C[C@H](C)[C@H](CC[C@@H](O)C[C@@H](O)CC(=O)NN)[C@H]21` [Compound 8], which IC50 (HMG-CoA reductase) is on record?
A: The IC50 was 0.95 ± 0.0801 µM.

Q: What about the IC50 (D1 cells [6]) of the same compound?
A: The IC50 was 106 ± 3.3 µM.

Q: For `CCC(C)(C)C(=O)O[C@H]1C[C@@H](C)C=C2C=C[C@H](C)[C@H](CC[C@@H](O)C[C@@H](O)CC(=O)NCc3ccccn3)[C@H]21` [Compound 9], which “effective inhibitory concentration compared with simvastatin” value (HMG-CoA reductase) is on record?
A: Its value is 500 fold.

Q: And the IC50 (HMG-CoA reductase)?
A: The IC50 was greater than 30 µM.

Q: What about the IC50 (D1 cells [6]) of the same compound?
A: Its IC50 is 97.3 ± 7.9 µM.

Q: What does the source list for `C=CCNC(=O)C[C@H](O)C[C@H](O)CC[C@@H]1[C@@H]2C(=C[C@H](C)C[C@@H]2OC(=O)C(C)(C)CC)C=C[C@@H]1C` [Compound 10]?
A: IC50 (HMG-CoA reductase): 26.6 µM; IC50 (D1 cells [6]): 92.2 ± 2.1 µM

Q: For `CCCNC(=O)C[C@H](O)C[C@H](O)CC[C@@H]1[C@@H]2C(=C[C@H](C)C[C@@H]2OC(=O)C(C)(C)CC)C=C[C@@H]1C` [Compound 11], which IC50 (HMG-CoA reductase) is on record?
A: The IC50 was 21.6 µM.

Q: What about the IC50 (D1 cells [6]) of the same compound?
A: Its IC50 is 94.1 ± 10.6 µM.

Q: For `CCC(C)(C)C(=O)O[C@H]1C[C@@H](C)C=C2C=C[C@H](C)[C@H](CC[C@@H]3C[C@@H](O)CC(=O)O3)[C@H]21` [Simvastatin, (1S,3R,7S,8S,8aR)-8-{2-[(2R,4R)-4-hydroxy-6-oxotetrahydro-2H-pyran-2-yl]ethyl}-3,7-dimethyl-1,2,3,7,8,8a-hexahydronaphthalen-1-yl2,2-dimethylbutanoate, reference compound], which IC50 ([3]; Homo sapiens, 72 h) is on record?
A: Its IC50 is 3.25 ± 0.31 µM.

Q: And the IC50 (D1 cells [6])?
A: Its IC50 is 3.25 ± 0.31 µM.

Q: And the “promotion of bone formation compared with the non-administration group (control)” value (zebrafish [5])?
A: The value was “did not promote bone formation”.

Q: And the “bone growth of zebrafish” value (zebrafish [8])?
A: The value was “does not benefit in the bone growth of zebrafish”.
